Assay results published in paper PMC3243694, “Integrated Dataset of Screening Hits against Multiple Neglected Disease Pathogens” (PLoS Neglected Tropical Diseases, 2011).
Values after ≈ are worked out from the molar mass of the structure shown.

What was measured:
[1] = tested on: Schistosoma mansoni adult worms; assay: Anti-Schistosoma activity assay (adult worm motility); type: cell-based; settings: S. mansoni adult worms; 12.5 µM (method: 10 µg/ml or 12.5 µM)
Protocol: (§1) The compound set was tested against the following parasites: intra-erythrocytic forms in human red blood cells of P. falciparum K1 strain (malaria), [16], [32], [33], [35], bloodstream forms of T. brucei Squib 427 strain (human African trypanosomiasis, HAT), [31], [32], [34], intracellular amastigotes of T. cruzi Tulahuen CL2, beta- galactosidase strain (Chagas' Disease), [32]–[35], intracellular amastigotes of L. infantum MHOM/MA(BE)/67 (leishmaniasis), [32]–[36], larval and/or adult worms of S. mansoni Puerto Rican strain (schistosomiasis), [31], [37], microfilariae of B. malayi (lymphatic filariasis), [30] and microfilariae of O. ochengi or O. lienalis (onchocerciasis), [30]. It should be noted that the human pathogen for onchocerciasis is Onchocerca volvulus, but due to lack of a suitable in vitro assay or animal models for this pathogen, O. ochengi and lienalis, which are both animal pathogens, are used in the primary and secondary assays, [30].
A subset of 9478 of the 10,000 compound collection was tested against the Puerto Rican strain of S. mansoni. 6144 of these were tested in a primary larval assay followed by the ex-vivo adult secondary screen. The remainder was screened only in the adult assay. […] The 65 compounds were sorted by chemical attractiveness, potency against adult schistosomes in culture, selectivity against other parasites, and toxicity to mammalian cells in culture. Based on this analysis, 5 series encompassing 13 compounds were chosen for advancement through the African Network for Drug and Diagnostic Innovation (ANDI) and other PDPs. Representative structures [structures # 13, 27, 28] are shown (Table S1). These compounds are unburdened by obvious toxic moieties, have acceptable compliance with the Lipinski rules, are selectively active against schistosomes and are not overtly toxic to mammalian cells. It has unfortunately not been possible to titrate all of these hits in culture; of about 50% for which such data are available, none has an IC50<2 µg/ml (which is the initial potency criteria).

[2] = tested on: Trypanosoma brucei brucei Squib-427 strain; assay: Antitrypanosomal activity assay, T. brucei (resazurin); type: cell-based; settings: T. brucei Squib 427 bloodstream forms, 72 h
Protocol: as §1

[3] = tested on: MRC-5 cell line (diploid human embryonic lung fibroblast); assay: Cytotoxicity on MRC-5 cells; type: cell-based
Source text: [table] An important part of the screen is the evaluation of all compounds for cytotoxicity using the diploid human embryonic lung fibroblast MRC-5 cell line (Figure 2). Further evaluation of cytotoxicity also takes advantage of the assays for intracellular protozoan parasites, as in the case of L. infantum and T. cruzi, which include murine peritoneal macrophage host cells and MRC-5SV2 human lung fibroblast cells, respectively, in the culture system.

[4] = tested on: Plasmodium falciparum K1 strain; assay: Anti-Plasmodium activity assay (Malstat); type: cell-based; settings: P. falciparum K1, 72 h
Protocol: as §1

[5] = tested on: Onchocerca (lienalis or ochengi) microfilariae; assay: Anti-Onchocerca microfilariae motility assay; type: cell-based, Onchocerca lienalis or O. ochengi
Protocol: as §1
4240 compound s were screened against O. ochengi at the University of Buea in Cameroon, while a subset of […] compounds was successfully screened in UK by the Northwick Park Institute for Medical Research against O. lienalis, at a uniform molarity. […] After removing molecules that were toxic to mammalian cells (IC50<5 µg/ml), 292 molecules remained for further evaluation. […] From the latter sub-set, […] distinct chemical series and one singleton [structure # 35] were active against both microfilaria and adults. One series [structures # 2, 3] was deemed not interesting due to lack of selectivity against mammalian cells. The remaining series is being transferred to ANDI for further progression as part of a new collaboration.

[6] = tested on: Brugia malayi microfilariae; assay: Anti-Brugia malayi microfilariae motility assay; type: cell-based; settings: B. malayi microfilariae
Protocol: as §1
(§2) As result of logistics issues attributed to lost shipments of some compounds, only 6160 molecules of the 10,000 compound set were tested, at a uniform molarity, against B. malayi, including 6063 against microfilariae and 756 against adult worms (these sets overlap). […] Greatest priority was given to compounds with activity against adult worms, as no macrofilaricide is available for use in control campaigns and the activity of ivermectin as a microfilaricidal agent is unlikely to be bettered in a new series. Of the test set, 53 compounds met the activity criterion for microfilariae (100% motility reduction) and an additional 58 inhibited adult worm motility ≥75% at 10 µM. These were titrated to determine an IC50 value to support prioritization. Following cytotoxicity triage [structures # 1, 4, 6], eight compounds met the activity criterion for adult worms (i.e., 100% inhibition of adult worm motility), four of which were also active against microfilariae [structures # 14, 29, 30, 32]. […] Of these, the most interesting was TDR76699 [structure # 29]; this compound has very good activity against adult worms (IC50 = 0.1 µg/ml) and is also active against microfilariae (IC50 = 0.7 µg/ml). None of the other compounds tested against adult parasites had IC50 values ≤0.5 µg/ml, a threshold which would reduce concerns about specificity. However, a few series [structures # 31, 33, 34], appear interesting for future medicinal chemistry projects.

[7] = tested on: Trypanosoma cruzi, Tulahuen CL2 strain; assay: Antitrypanosomal activity assay, T. cruzi in MRC-5 cells; type: cell-based; settings: T. cruzi Tulahuen CL2 in MRC-5 cells, 7 days
Protocol: as §1
171 of the 744 actives passed the initial criterion of IC50<1 µg/ml for T. cruzi Tulahuen CL2, beta galactosidase strain maintained on MRC-5SV2 cells in MEM medium (MRC-5 cell/parasite inoculum: 4.10^3 cells/well+4.10^4 parasites/well), supplemented with […] L-glutamine, 16.5 mM NaHCO3 and 5% heat inactivated fetal calf serum. […] Of these, 109 were eliminated [structures #1–6] for poor selectivity versus mammalian cells (SI<50) and an additional 11 due to undesirable chemical attributes. The remaining 51 compounds were sorted into 10 series (45 compounds) and 6 singletons [structures # 21, 22]. Two of these series with excellent potency against T. cruzi, limited activity against other protozoa and SI values >50 (not shown), have been transferred to DNDi for further evaluation.

[8] = tested on: Brugia malayi adult worms; assay: Anti-Brugia malayi adult worm motility assay; type: cell-based; settings: B. malayi adult worms
Source text: as §2, with “In some cases, particularly for the antifilarial screens, a second whole organism test with adult stage parasites is included prior to animal evaluation. The decision to utilize microfilariae for primary screening was based on throughput and biological considerations. It is difficult to acquire enough adult filariae to enable screening more than 1000 compounds per year, a rate far lower than needed for timely evaluation of the available compounds. In light of this situation, and considering that we are targeting molecules that are active on both stages, microfilariae screening was adopted as a suitable filter to identify compounds with potential macrofilaricidal activity. As” for “As”, “Of the test set, 53 compounds met the activity criterion for microfilariae (100% motility reduction) and an additional 58 inhibited adult worm motility ≥75% at 10 µM.” left out

| Compound | SCH % Motility Reduction at 12.5µM [1] | HAT IC50 [2] | CYT IC50 [3] | MAL IC50 [4] | ONC/MF % Motility Reduction at 12.5µM [5] | LF/MF % Motility Reduction at 12.5µM [6] | CHA IC50 [7] | LF/AW % Motility Reduction at 12.5µM [8] | IC50 microfilariae ([6]; titration) | IC50 adult worms ([8]; titration) |
| --- | --- | --- | --- | --- | --- | --- | --- | --- | --- | --- |
| O=C(COc1ccc(Cl)cc1Cl)Nc1nnc(C23CC4CC(CC(C4)C2)C3)s1 [TDR76660] | 0% | >13.15 µg/mL | >13.15 µg/mL | >13.15 µg/mL | 0% | 100% | >13.15 µg/mL | 0% |  |  |
| Cc1cccc(-n2nc3c(c2NC(=O)Nc2cccc(Cl)c2)CSC3)c1 [TDR76699] | 25% | >11.55 µg/mL | >11.55 µg/mL | >11.55 µg/mL | 33% | 100% | 9.48 µg/mL | 100% | 0.7 µg/mL (≈ 1.82 µM) | 0.1 µg/mL (≈ 0.26 µM) |
| CCOC(=O)c1ccc(NC(=O)CSc2nnc(NC(=O)C34CC5CC(CC(C5)C3)C4)s2)cc1 [TDR76705] | 0% | >15.02 µg/mL | >15.02 µg/mL | >15.02 µg/mL | 33.3% | 100% | >15.02 µg/mL | 100% |  |  |
| CCC(=O)c1c(NC(=O)c2ccc(C)cc2)sc2c1CCN(CC)C2 [TDR76871] | 0% | 0.32 µg/mL | >11.79 µg/mL | 1.87 µg/mL | 0% | 33.3% | 0.48 µg/mL | 22.3% |  |  |
| COC(=O)c1c(NC(=O)c2cc3ccccc3oc2=O)sc2c1CCN(Cc1ccccc1)C2 [TDR76873] | 0% | >15.33 µg/mL | 8.92 µg/mL | >15.33 µg/mL | 40% | 100% | 0.64 µg/mL | 100% |  |  |
| O=C(Nc1nc2c(s1)CSc1ccccc1-2)C1COc2ccccc2O1 (stereo not shown) [TDR77035] | 100% | 0.37 µg/mL | 2.62 µg/mL | 4.75 µg/mL | 100% | 33% | 0.5 µg/mL | 0% |  |  |
| O=C(COc1cccc2c1CCN(Cc1ccccc1F)C2=O)N1CCC(Cc2ccccc2)CC1 [TDR77144] | 0% | 0.47 µg/mL | 4.56 µg/mL | 4.54 µg/mL | 0% | 100% | 0.56 µg/mL | 100% |  |  |
| O=C(Nc1nc2c(F)cc(F)cc2s1)c1nc2ccccc2s1 [TDR77323] | 0% |  | >10.42 µg/mL | >10.42 µg/mL |  | 100% | >10.42 µg/mL | 50% |  |  |
| COc1cccc2sc(Nc3nnc(-c4cccs4)o3)nc12 [TDR77585] | 0% | 0.35 µg/mL | 1.83 µg/mL | 1.25 µg/mL |  | 100% | 0.31 µg/mL | 50% |  |  |
| CN(C)CCN(C(=O)c1cccc(N2C(=O)CCC2=O)c1)c1nc2ccc(Br)cc2s1 [TDR79337] | 33% | 0.36 µg/mL | >16.14 µg/mL | 1.45 µg/mL | 0% |  | 4.94 µg/mL | 0% |  |  |
| O=C(Nc1nc2c(s1)CSc1ccccc1-2)C1CCCN1S(=O)(=O)c1cccs1 (stereo not shown) [TDR83016] | 100% | 0.45 µg/mL | 1.88 µg/mL | 3.71 µg/mL | 100% | 100% | 0.5 µg/mL | 0% |  |  |
| O=C(c1ccccc1)N1CCN(c2ccc(Nc3ccccn3)nn2)CC1 [TDR86082] | 0% | >10.8 µg/mL | >10.8 µg/mL | >10.8 µg/mL | 0% | 0% | >10.8 µg/mL |  |  |  |
| O=S(=O)(c1cccc(F)c1)N1CCN(c2ccc(Nc3cccnc3)nn2)CC1 [TDR86129] | 0% | >12.43 µg/mL | 0.94 µg/mL | 5.44 µg/mL | 0% | 0% | >12.43 µg/mL |  |  |  |
